# According to patent US9233185B2, “Absorbent article” (UNICHARM CORPORATION, priority 2012, dated 2016):
# How the values were obtained:
# [1] = Rewetting rate of sanitary napkin with top sheet coated with blood modifying agent; conditions: horse EDTA blood 3.0 g twice at 37±1° C.; agent coated on top sheet at about 5 g/m^2
# Experimental: A commercially available sanitary napkin was prepared. The sanitary napkin was formed from a top sheet, formed of a hydrophilic agent-treated air-through nonwoven fabric (composite fiber composed of polyester and polyethylene terephthalate, basis weight: 35 g/m^2), a second sheet, formed of an air-through nonwoven fabric (composite fiber composed of polyester and polyethylene terephthalate, basis weight: 30 g/m^2), an absorbent body comprising pulp (basis weight: 150-450 g/m^2, increased at the center section), an acrylic super-absorbent polymer (basis weight: 15 g/m^2) and tissue as a core wrap, a water-repellent agent-treated side sheet, and a back sheet composed of a polyethylene film.
# (§1) The skin contact surface of the top sheet of the sanitary napkin was coated with the aforementioned blood modifying agent. Each blood modifying agent was used directly, when the blood modifying agent was liquid at room temperature, or when the blood modifying agent was solid at room temperature it was heated to its melting point +20° C., and a control seam HMA gun was used for atomization of the blood modifying agent and coating onto the entire skin contact surface of the top sheet to a basis weight of about 5 g/m^2.
# (§2) An acrylic board with an opened hole (200 mm×100 mm, 125 g, with a 40 mm×10 mm hole opened at the center) was placed on a top sheet comprising each blood modifying agent, and 3.0 g of horse EDTA blood at 37±1° C. (obtained by adding ethylenediaminetetraacetic acid (hereunder, “EDTA”) to horse blood to prevent coagulation) was dropped through the hole using a pipette (once), and after 1 minute, 3.0 g of horse EDTA blood at 37±1° C. was again added dropwise through the acrylic board hole with a pipette (twice).
# After the second dropping of blood, the acrylic board was immediately removed and 10 sheets of filter paper (Advantec Toyo Kaisha, Ltd, Qualitative Filter Paper No. 2, 50 mm×35 mm) were placed on the location where the blood had been dropped, and then a weight was placed thereover to a pressure of 30 g/cm^2. After 1 minute, the filter paper was removed, and the “rewetting rate” was calculated by the following formula. Rewetting rate(%)=100×(filter paper mass after test−initial filter paper mass)/6
# [2] = Absorbent body migration rate after second dropping of blood; conditions: time after second dropping of horse EDTA blood; agent about 5 g/m^2
# Experimental: as §1, §2
# In addition to the rewetting rate evaluation, the “absorbent body migration rate” was also measured as the time until migration of blood from the top sheet to the absorbent body after the second dropping of blood. The absorbent body migration rate is the time from introducing the blood onto the top sheet, until the redness of the blood […] on the surface and in the interior of the top sheet.
# [3] = Visual evaluation of whiteness of skin contact surface of top sheet; design: species or system horse; key: VG (Very Good): Virtually no redness of blood remaining, and no clear delineation between areas with and without blood.; G (Good): Slight redness of blood remaining, but difficult to delineate between areas with and without blood.; F (Fair): Slight redness of blood remaining, areas with blood discernible.; P (Poor): Redness of blood completely remaining; conditions: after absorbent body migration rate test
# Excerpt: The whiteness of the skin contact surface of the top sheet after the absorbent body migration rate test was visually evaluated on the following scale.
# VG (Very Good): Virtually no redness of blood remaining, and no clear delineation between areas with and without blood.
# G (Good): Slight redness of blood remaining, but difficult to delineate between areas with and without blood.
# F (Fair): Slight redness of blood remaining, areas with blood discernible.
# P (Poor): Redness of blood completely remaining.
# [4] = Surface tension of blood containing blood modifying agent, pendant drop method; conditions: sheep defibrinated blood; amount 0.10 mass %; 35 ° C.
# Experimental: The surface tension of blood containing a blood modifying agent was measured by the pendant drop method, using a Drop Master500 contact angle meter by Kyowa Interface Science Co., Ltd. The surface tension was measured after adding a prescribed amount of blood modifying agent to sheep defibrinated blood, and thoroughly shaking. The measurement was accomplished automatically with a device, and the surface tension γ was determined by the following formula (see FIG. 10). γ=g×ρ×(de)^2×1/H The density ρ was measured at the temperatures listed in Table 7, according to JIS K 2249-1995, “Density test methods and density/mass/volume conversion tables”, “5. Vibrating density test method”. The measurement was accomplished using a DA-505 by Kyoto Electronics Co., Ltd.
# [5] = Excerpt: The term “solubility” used herein in regard to water solubility includes cases where the sample completely dissolves in deionized water to form a homogeneous mixture, and cases where the sample is completely emulsified. Here, “completely” means that no mass of the sample remains in the deionized water.
Water solubility [5],Compound,Rewetting rate [1],Absorbent body migration rate [2],Top sheet whiteness [3],Surface tension [4]
,CCCCCCCCOC(=O)CCCCC(=O)OCCCCCCCC [Dioctyl adipate],1.7%,6 s,VG,
,"CCCCCCCCCCCCCC(=O)OCCCCCCCCCCCC [ELECTOL WE40, Ester of tetradecanoic acid (C14) and dodecyl alcohol (C12)]",1.8%,4 s,VG,
,"CCCCCCCCCCCCOC(=O)CCCCCCCCCCC [ELECTOL WE20, Ester of dodecanoic acid (C12) and dodecyl alcohol (C12)]",1.8%,,VG,58.8 mN/m
,Caprylic acid diglyceride [Caprylic diglyceride],4.2%,9 s,G,
<0.05 g,"CCCCC(CC)C(=O)OCC(C)(C)COC(=O)C(CC)CCCC (centres unmarked) [H-208BRS, Neopentyl glycol di(2-ethylhexanoate)]",2.0%,5 s,VG,
<0.05 g,CCCCCCCC(=O)OCC(COC(=O)CCCCCCC)OC(=O)CCCCCCC [PANACET 800],0.3%,3 s,VG,
20< g,CC(C)CCCCCCCCCCCCCCCOC(=O)CC(O)C(=O)OCCCCCCCCCCCCCCCC(C)C (centres unmarked) [Diisostearyl malate],5.5%,8 s,F,
,"CCCCCCCCCCCC(=O)OCC(O)CO (centres unmarked) [90-L2 Lauric acid monoglyceride, lauric acid monoglyceride]",6.2%,,P,
<0.05 g,CCCCOC(=O)CC(CC(=O)OCCCC)(OC(C)=O)C(=O)OCCCC [Tributyl O-acetylcitrate],6.2%,8 s,VG,
,"CCCCC(CC)C(=O)OCC(COC(=O)C(CC)CCCC)(COC(=O)C(CC)CCCC)COC(=O)C(CC)CCCC (centres unmarked) [H-408BRS, Pentaerythritol tetra(2-ethylhexanoate)]",,,VG,
,Isopropyl citrate,12.2%,5 s,G,
<0.05 g,CCCCC(CC)C(=O)OCC(COC(=O)C(CC)CCCC)OC(=O)C(CC)CCCC (centres unmarked) [PANACET 800B],2.0%,3 s,VG,
